Measurements as given in patent publication US20250144067A1, “PERSONALIZED STARVATION THERAPY FOR CANCER” (Faeth Therapeutics, Inc., priority 2021, published 2025).
Structures can show the parent of a compound that is named as a salt.

Experiments:
[1] = test system: NCI-H292 lung cancer cells; experiment: FDA drug screening, complete media vs cholesterol-free media with simvastatin (TABLE 2); assay type: cell-based, human; conditions: for Cholesterol-free media + simvastatin (0.04 μM) / Complete Media: NCI-H292 cells; for Difference: >0 enhanced anti-cancer activity, about 0 neutral, <0 antagonist
[2] = test system: NCI-H292 lung cancer cells; experiment: FDA drug screening, complete media vs cholesterol-free media without statin (TABLE 1); assay type: cell-based, human; conditions: for Difference: about 0 neutral
[3] = FDA drug library screen, cholesterol-free media with simvastatin 0.04 μM
[4] = FDA drug library screen, complete media
[5] = complete media minus cholesterol-free media + simvastatin
[6] = Complete minus Cholesterol-free, >0 enhanced anti-cancer activity, <0 antagonist
[7] = NCI-H292 cells, cholesterol-free media without statin
[8] = complete media minus cholesterol-free media + simvastatin (0.04 μM)
[9] = Complete minus Cholesterol-free, greater than 0 enhanced anti-cancer activity, below 0 antagonist
[10] = NCI-H292 cells, FDA drug library screen, cholesterol-free media without statin
[11] = NCI-H292 cells, FDA drug library screen, complete media
[12] = FDA library drug in cholesterol-free media with simvastatin 0.04 μM
[13] = FDA library drug in complete media
[14] = complete media vs cholesterol-free media + simvastatin (0.04 μM)
[15] = cholesterol-free media with simvastatin 0.04 μM, cell growth value in FDA drug screen
[16] = complete media, cell growth value in FDA drug screen
[17] = NCI-H292 cells, cholesterol-free media without statin, FDA drug library screen
[18] = NCI-H292 cells, complete media, FDA drug library screen
[19] = Complete minus Cholesterol-free, greater than 0 enhanced anti-cancer activity, below 0 antagonists
[20] = NCI-H292 cells in cholesterol-free media without statin
[21] = NCI-H292 cells in complete media
[22] = cholesterol-free media with simvastatin 0.04 μM, FDA drug library screen (TABLE 2)
[23] = complete media, FDA drug library screen (TABLE 2)

| Molecule | Cholesterol-free media + simvastatin (0.04 μM) [1, 3] | Complete Media [1, 4] | Difference [1, 5] | Difference [2, 9] | Cholesterol-free [2, 10] | Complete [2, 11] | Difference [1, 14] | Difference [2, 19] | Cholesterol-free [2, 20] | Complete [2, 21] | other results |
| --- | --- | --- | --- | --- | --- | --- | --- | --- | --- | --- | --- |
| Clc1ccc(C(Cn2ccnc2)OCc2ccsc2Cl)c(Cl)c1 (centres unmarked) [Tioconazole] | 0.669 | 0.9672 | 0.30 | – | – | – | – | – | – | – | Difference [2, 6]: −0.27; Cholesterol-free [2, 7]: 1.207; Complete ([2]; NCI-H292 cells, complete media): 0.9413 |
| CCCCCCCCCCCCCCCCCC(=O)O [Stearic acid] | 1.741 | – | – | −0.14 | 1.159 | 1.022 | – | – | – | – | Difference [1, 8]: −1.08 |
| CN(Cc1cc(Br)cc(Br)c1N)C1CCCCC1 [Bromhexine (hydrochloride)] | – | – | – | −0.09 | 1.344 | 1.254 | −0.29 | – | – | – | Cholesterol-free media + simvastatin (0.04 μM) [1, 12]: 1.081; Complete Media [1, 13]: 0.7932 |
| O=C(C[S+]([O-])Cc1ccco1)NC/C=C\COc1cc(CN2CCCCC2)ccn1 (centres unmarked) [Lafutidine] | – | – | 0.02 | – | – | – | – | – | – | – | Cholesterol-free media + simvastatin (0.04 μM) [1, 15]: 1.203; Complete Media [1, 16]: 1.221; Difference [2, 6]: 0.01; Cholesterol-free [2, 17]: 1.364; Complete [2, 18]: 1.371 |
| Sitagliptin (phosphate monohydrate) | – | – | – | – | – | – | −0.17 | – | – | – | Cholesterol-free media + simvastatin (0.04 μM) ([1]; drug in cholesterol-free media with simvastatin 0.04 μM): 1.13; Complete Media ([1]; drug in complete media): 0.959; Cholesterol-free [2, 7]: 1.047; Complete ([2]; NCI-H292 cells, complete media): 0.6455; Difference ([2]; complete vs cholesterol-free media, greater than 0 enhanced anti-cancer activity, below 0 antagonists): −0.40 |
| Butoconazole (nitrate) | 0.1838 | 0.9232 | 0.74 | −0.19 | 0.9845 | 0.7977 | – | – | – | – | – |
| CC1(C)CCC(CN2CCN(c3ccc(C(=O)NS(=O)(=O)c4ccc(NCC5CCOCC5)c([N+](=O)[O-])c4)c(Oc4cnc5[nH]ccc5c4)c3)CC2)=C(c2ccc(Cl)cc2)C1 [Venetoclax] | 1.767 | 1.658 | – | – | – | – | −0.11 | −0.58 | 1.517 | 0.9332 | – |
| COc1c(OCCCN2CCOCC2)ccc2c1N=C(NC(=O)c1cnc(N)nc1)N1CCN=C21 [Copanlisib (dihydrochloride)] | – | – | 0.08 | – | – | – | – | – | – | – | Cholesterol-free media + simvastatin (0.04 μM) [1, 15]: 0.2902; Complete Media [1, 16]: 0.3694; Difference [2, 6]: 0.02; Cholesterol-free [2, 17]: 0.07316; Complete [2, 18]: 0.09563 |
| COc1cc2nccc(Oc3ccc(NC(=O)C4(C(=O)Nc5ccc(F)cc5)CC4)cc3)c2cc1OC [Cabozantinib (S-malate)] | – | – | – | −0.18 | 1.011 | 0.8269 | −0.29 | – | – | – | Cholesterol-free media + simvastatin (0.04 μM) [1, 12]: 1.216; Complete Media [1, 13]: 0.9255 |
| N#C[C@@H]1CCCN1C(=O)CNC12CC3CC(CC(O)(C3)C1)C2 [Vildagliptin] | 1.588 | 1.466 | – | – | – | – | −0.12 | −0.50 | 1.213 | 0.7138 | – |
| COc1cc(N)c(Cl)cc1C(=O)NC1CCN(CCCOc2ccc(F)cc2)CC1OC (centres unmarked) [Cisapride] | 1.001 | 0.8916 | – | – | – | – | −0.11 | −0.91 | 1.595 | 0.6865 | – |
| CN1CCN2c3ncccc3Cc3ccccc3C2C1 (centres unmarked) [Mirtazapine] | – | – | – | −0.17 | 1.176 | 1.005 | – | – | – | – | Cholesterol-free media + simvastatin (0.04 μM) [1, 22]: 0.9802; Complete Media [1, 23]: 0.914; Difference [1, 8]: −0.07 |
| Nc1ccc(S(=O)(=O)c2ccc(N)cc2)cc1 [Dapsone] | 0.9689 | 1.132 | 0.16 | – | – | – | – | −0.48 | 1.475 | 0.9984 | – |
| CCn1cc(C(=O)O)c(=O)c2cc(F)c(N3CCNCC3)nc21 [Enoxacin (hydrate)] | – | – | – | – | – | – | – | −0.49 | 1.532 | 1.045 | Cholesterol-free media + simvastatin (0.04 μM) [1, 22]: 1.166; Complete Media [1, 23]: 1.164; Difference [1, 8]: 0.00 |
